These results are taken from patent publication US11053213B2, “Pharmaceutical compounds” (ALMAC DISCOVERY LIMITED, priority 2016, dated 2021).

Each structure is given as a SMILES string.

Sequence of USP19 (O94966 whole entry): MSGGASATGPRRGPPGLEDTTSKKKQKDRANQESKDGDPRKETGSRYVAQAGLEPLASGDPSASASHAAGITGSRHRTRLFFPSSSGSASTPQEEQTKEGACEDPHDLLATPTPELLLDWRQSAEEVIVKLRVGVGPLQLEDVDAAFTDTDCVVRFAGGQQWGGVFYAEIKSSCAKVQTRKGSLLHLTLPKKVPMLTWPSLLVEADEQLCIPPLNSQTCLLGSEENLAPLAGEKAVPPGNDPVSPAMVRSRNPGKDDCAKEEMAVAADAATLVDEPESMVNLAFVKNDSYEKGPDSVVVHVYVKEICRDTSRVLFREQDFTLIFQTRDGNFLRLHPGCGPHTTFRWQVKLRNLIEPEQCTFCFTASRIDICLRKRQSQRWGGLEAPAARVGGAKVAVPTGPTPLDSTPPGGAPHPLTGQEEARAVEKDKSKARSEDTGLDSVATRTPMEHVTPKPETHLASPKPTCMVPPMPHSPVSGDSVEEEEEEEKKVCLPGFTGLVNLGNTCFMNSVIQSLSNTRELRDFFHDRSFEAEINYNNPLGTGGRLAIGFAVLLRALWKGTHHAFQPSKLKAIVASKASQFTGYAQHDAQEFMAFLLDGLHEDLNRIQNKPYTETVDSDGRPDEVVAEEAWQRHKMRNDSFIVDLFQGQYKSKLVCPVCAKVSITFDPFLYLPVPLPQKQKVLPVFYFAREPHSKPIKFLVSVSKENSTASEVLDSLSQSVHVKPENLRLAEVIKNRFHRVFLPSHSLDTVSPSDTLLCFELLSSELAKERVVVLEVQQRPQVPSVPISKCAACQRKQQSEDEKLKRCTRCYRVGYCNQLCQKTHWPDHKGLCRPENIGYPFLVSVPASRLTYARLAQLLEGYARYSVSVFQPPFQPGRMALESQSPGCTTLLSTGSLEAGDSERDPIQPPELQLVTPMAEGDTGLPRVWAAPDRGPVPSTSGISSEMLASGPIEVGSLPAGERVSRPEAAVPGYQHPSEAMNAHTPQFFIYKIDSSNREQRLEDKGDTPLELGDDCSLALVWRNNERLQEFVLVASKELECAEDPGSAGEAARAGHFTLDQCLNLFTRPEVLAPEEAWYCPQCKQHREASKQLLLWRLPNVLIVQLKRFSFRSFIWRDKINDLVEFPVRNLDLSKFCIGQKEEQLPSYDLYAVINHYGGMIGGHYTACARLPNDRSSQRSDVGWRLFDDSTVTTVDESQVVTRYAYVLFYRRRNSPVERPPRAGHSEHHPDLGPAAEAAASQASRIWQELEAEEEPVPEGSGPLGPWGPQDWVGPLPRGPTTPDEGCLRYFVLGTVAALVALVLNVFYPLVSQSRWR

This assay concerns the target USP19 (Homo sapiens (Human), UniProt O94966). As to the kind of experiment: USP19 activity assay (fluorescence polarisation, Ubiquitin-Lys-TAMRA substrate). The assay is classed as biochemical. The following applies: full-length USP19 2.5 nM, 30 min pre-incubation, Ub substrate 500 nM; average of at least two duplicate experiments. For orientation: In fluorescence polarisation assays a small probe gives low polarisation when free and higher when bound to something large.
On to `C[C@H](CC1CCCCC1)C(=O)N1CCC(O)(Cn2cc(C(=O)N(C)C)c(N(C)C)cc2=O)C2(CCCC2)C1` (stereo partly drawn) [Example 145, 1-((7-((R)-3-Cyclohexyl-2-methylpropanoyl)-10-hydroxy-7-azaspiro[4.5]decan-10-yl)methyl)-4-(dimethylamino)-N,N-dimethyl-6-oxo-1,6-dihydropyridine-3-carboxamide], for which the IC50 (commonly the concentration that gives 50% inhibition) is less than 0.5 µM.
For `CN(C)C(=O)c1cn(CC2(O)CCN(C(=O)[C@H](COCc3ccccc3)CC3CCCCC3)CC2(C)C)c(=O)cc1-c1ccccc1` (stereo partly drawn) [Example 146, 1-((1-((S)-3-(Benzyloxy)-2-(cyclohexylmethyl)propanoyl)-4-hydroxy-3,3-dimethylpiperidin-4-yl)methyl)-N,N-dimethyl-6-oxo-4-phenyl-1,6-dihydropyridine-3-carboxamide] the value was 0.5 to 5 µM.
For `CC(C)C(=O)N1CCC(O)(Cn2cc(C(=O)N(C)C)c(-c3ccccc3)cc2=O)C2(CCCC2)C1` (stereo not drawn) [Example 147, 1-((10-Hydroxy-7-isobutyryl-7-azaspiro[4.5]decan-10-yl)methyl)-N,N-dimethyl-6-oxo-4-phenyl-1,6-dihydropyridine-3-carboxamide] the value was 50 to 250 µM.
For the molecule `CC[C@@H](C)C(=O)N1CCC(O)(Cn2cc(C(=O)N(C)C)c(-c3ccccc3)cc2=O)C2(CCCC2)C1` (stereo partly drawn) [Example 148, 1-((10-Hydroxy-7-((R)-2-methylbutanoyl)-7-azaspiro[4.5]decan-10-yl)methyl)-N,N-dimethyl-6-oxo-4-phenyl-1,6-dihydropyridine-3-carboxamide], the IC50 is 5 to 50 µM.
For `C[C@H](CC1CC1)C(=O)N1CCC(O)(Cn2cc(C(=O)N(C)C)c(-c3ccccc3)cc2=O)C2(CCCC2)C1` (stereo partly drawn) [Example 149, 1-((7-((R)-3-Cyclopropyl-2-methylpropanoyl)-10-hydroxy-7-azaspiro[4.5]decan-10-yl)methyl)-N,N-dimethyl-6-oxo-4-phenyl-1,6-dihydropyridine-3-carboxamide] the value was less than 0.5 µM.
For `CC(Cn1cccn1)C(=O)N1CCC(O)(Cn2cnc(-c3ccccc3F)cc2=O)C(C)(C)C1` (stereo not drawn) [Example 150, 6-(2-Fluorophenyl)-3-((4-hydroxy-3,3-dimethyl-1-(2-methyl-3-(1H-pyrazol-1-yl)propanoyl)piperidin-4-yl)methyl)pyrimidin-4(3H)-one] the value was 50 to 250 µM; for `C[C@H](CC1CCCCC1)C(=O)N1CCC(O)(Cn2cc(C(=O)N(C)C)c(-c3ccccc3CO)cc2=O)C2(CCCC2)C1` (stereo partly drawn) [Example 151, 1-((7-((R)-3-Cyclohexyl-2-methylpropanoyl)-10-hydroxy-7-azaspiro[4.5]decan-10-yl)methyl)-4-(2-(hydroxymethyl)phenyl)-N,N-dimethyl-6-oxo-1,6-dihydropyridine-3-carboxamide], 5 to 50 µM; for `CN(C)C(=O)c1cn(C[C@]2(O)CCN(C(=O)[C@H](CO)CC3CCCCC3)CC2(C)C)c(=O)cc1-c1ccccc1` [Example 152, 1-(((S)-1-((S)-3-Cyclohexyl-2-(hydroxymethyl)propanoyl)-4-hydroxy-3,3-dimethylpiperidin-4-yl)methyl)-N,N-dimethyl-6-oxo-4-phenyl-1,6-dihydropyridine-3-carboxamide], less than 0.5 µM.
For `C[C@H](CC1CCCCC1)C(=O)N1CCC(O)(Cn2cc(-c3ccccn3)c(-c3ccccc3F)cc2=O)C(C)(C)C1` (stereo partly drawn) [Example 154, 1′-((1-((R)-3-Cyclohexyl-2-methylpropanoyl)-4-hydroxy-3,3-dimethylpiperidin-4-yl)methyl)-4′-(2-fluorophenyl)-[2,3′-bipyridin]-6′(1′H)-one] the value was 5 to 50 µM; for `C[C@H](CC1CCCCC1)C(=O)N1CCC(O)(Cn2cc(C(=O)N(C)C)c(-c3ccsc3)cc2=O)C2(CCCC2)C1` (stereo partly drawn) [Example 155, 1-((7-((R)-3-Cyclohexyl-2-methylpropanoyl)-10-hydroxy-7-azaspiro[4.5]decan-10-yl)methyl)-N,N-dimethyl-6-oxo-4-(thiophen-3-yl)-1,6-dihydropyridine-3-carboxamide], less than 0.5 µM; for `C[C@H](CC1CCCCC1)C(=O)N1CCC(O)(Cn2cc(C(=O)N(C)C)c(-c3cccc(CO)c3)cc2=O)C2(CCCC2)C1` (stereo partly drawn) [Example 156, 1-((7-((R)-3-Cyclohexyl-2-methylpropanoyl)-10-hydroxy-7-azaspiro[4.5]decan-10-yl)methyl)-4-(3-(hydroxymethyl)phenyl)-N,N-dimethyl-6-oxo-1,6-dihydropyridine-3-carboxamide], less than 0.5 µM.
On to `CN(C)C(=O)c1cn(CC2(O)CCN(C(=O)C(O)CC3CCCCC3)CC23CCCC3)c(=O)cc1-c1ccccc1` (stereo not drawn) [Example 157, 1-((7-(3-Cyclohexyl-2-hydroxypropanoyl)-10-hydroxy-7-azaspiro[4.5]decan-10-yl)methyl)-N,N-dimethyl-6-oxo-4-phenyl-1,6-dihydropyridine-3-carboxamide], for which the IC50 is less than 0.5 µM.
Under `CC(CN1CCCCC1)C(=O)N1CCC(O)(Cn2cc(C(=O)N(C)C)c(-c3ccccc3)cc2=O)C2(CCCC2)C1` (stereo not drawn) [Example 158, 1-((10-Hydroxy-7-(2-methyl-3-(piperidin-1-yl)propanoyl)-7-azaspiro[4.5]decan-10-yl)methyl)-N,N-dimethyl-6-oxo-4-phenyl-1,6-dihydropyridine-3-carboxamide] stands 50 to 250 µM; under `C[C@H](CC1CCCCC1)C(=O)N1CCC(O)(Cn2cnc(-c3cccc(CN)c3)cc2=O)C(C)(C)C1` (stereo partly drawn) [Example 159, 6-(3-(Aminomethyl)phenyl)-3-((1-((R)-3-cyclohexyl-2-methylpropanoyl)-4-hydroxy-3,3-dimethylpiperidin-4-yl)methyl)pyrimidin-4(3H)-one], 0.5 to 5 µM; under `COC[C@H](CC1CCCCC1)C(=O)N1CC[C@@](O)(Cn2cc(C(=O)N(C)C)c(-c3ccccc3)cc2=O)C(C)(C)C1` [Example 160, 1-(((S)-1-((S)-3-Cyclohexyl-2-(methoxymethyl)propanoyl)-4-hydroxy-3,3-dimethylpiperidin-4-yl)methyl)-N,N-dimethyl-6-oxo-4-phenyl-1,6-dihydropyridine-3-carboxamide], less than 0.5 µM.
On to `C[C@H](CC1CCCCC1)C(=O)N1CCC(O)(Cn2cc(C(=O)N(C)C)c(-c3ccccc3CN)cc2=O)C2(CCCC2)C1` (stereo partly drawn) [Example 161, 4-(2-(Aminomethyl)phenyl)-1-((7-((R)-3-cyclohexyl-2-methylpropanoyl)-10-hydroxy-7-azaspiro[4.5]decan-10-yl)methyl)-N,N-dimethyl-6-oxo-1,6-dihydropyridine-3-carboxamide], for which the IC50 lay within 5 to 50 µM.
For `C[C@H](CC1CCCCC1)C(=O)N1CCC(O)(Cn2cc(C(=O)N(C)C)c(-c3ccc(CO)cc3)cc2=O)C2(CCCC2)C1` (stereo partly drawn) [Example 162, 1-((7-((R)-3-Cyclohexyl-2-methylpropanoyl)-10-hydroxy-7-azaspiro[4.5]decan-10-yl)methyl)-4-(4-(hydroxymethyl)phenyl)-N,N-dimethyl-6-oxo-1,6-dihydropyridine-3-carboxamide] the value was less than 0.5 µM; for `CC(CN1CCOCC1)C(=O)N1CCC(O)(Cn2cc(C(=O)N(C)C)c(-c3ccccc3)cc2=O)C2(CCCC2)C1` (stereo not drawn) [Example 163, 1-((10-Hydroxy-7-(2-methyl-3-morpholinopropanoyl)-7-azaspiro[4.5]decan-10-yl)methyl)-N,N-dimethyl-6-oxo-4-phenyl-1,6-dihydropyridine-3-carboxamide], 5 to 50 µM.
